For this assay, the system named is lipid peroxyl radicals. As to the kind of experiment: In vivo bleaching of beta-carotene applied to the skin under UVA (lipid peroxyl radical scavenging). The note with it: human forearm skin, 2 mg/cm^2, UVA. As for the experimental part:
The protective effect of pomegranate-derived skin cream from the Example 4 was determined by assessing lipid peroxyl free radical scavenging capacity on the skin. Free radicals have been implicated in many of undesirable aspects of skin aging whether due to intrinsic cause or to exposure to UV radiation. Carotenoids like beta-carotene are efficient antioxidants scavenging singlet molecular oxygen and peroxyl radicals generated in during photooxidation. The bleaching of carotenoids has been used to evaluate the auto-oxidation activity of natural products. This technique can be used to evaluate, in vivo in non-invasive way, the ability of skin cream products to scavenge lipid peroxyl radicals. Basically, the method includes measuring the bleaching of beta-carotene applied to the skin when irradiated by UVA. […] An individual skin type is determined by an Individual Topology Angle (ITA), which can be found by using the following formula: […]*)×180/3.1415. Dr. Scholl's® Round Adhesive callus pad (Schering-Plough, Kenilworth, N.J.) were placed on the volar surface of the designated forearm (pre-cleaned with alcohol) of subjects. […] A baseline chromameter reading is taken after all of the callus pads have been applied. 2 mg/cm^2 of test skin cream and the positive control are applied in duplicate to each of the 2 sites. This is accomplished by means of a pre-calibrated syringe or by weighing the appropriate test material amount in a weigh boat. The test product and positive control are allowed to set on the forearm at ambient temperature for 15 minutes. The chromameter is used to measure the b* parameter of the coloration of the treated skin. Measurements are taken on the treated and untreated sites. The beta-carotene solution is then applied by means of a finger cot to obtain a uniform, homgeous orange color on all sites (pre-treated and non-treated), excluding the two control sites. The chromameter is used to measure the b* component of each site, post-application of the beta-carotene. […] The total exposure to UVA radiation is 6.0 J/cm^2. […]

For the compound `CC1=C(/C=C/C(C)=C/C=C/C(C)=C/C=C/C=C(C)/C=C/C=C(C)/C=C/C2=C(C)CCCC2(C)C)C(C)(C)CCC1` [®-carotene, beta-carotene], the “Mean of Color Index” value by setting is: (at 10 minutes) 42%; (at 30 minutes) 16%; (at 60 minutes) 0%.

For the origin of these results see patent US9433572B2, “Pomegranate based skin protectant and topical application” (POM Wonderful, LLC, priority 2008, dated 2016).
